# Patent publication US12428405B2, “Chalcone-based chemotherapeutic compound for triple negative breast cancer” (QATAR UNIVERSITY, priority 2019, dated 2025)
# Entries after “also recorded” stand apart in the source; their conditions may differ.
# Experiments:
# tubulin = assay: Cell free tubulin polymerization assay; assay type: biochemical; conditions: N=1×2, colchicine and paclitaxel as controls
# Protocol: The effect of compound 14 on tubulin polymerization dynamics was assessed using the cell free Cytoskeleton tubulin polymerization assay kit, Version 8.3 (Cytoskeleton, Inc., USA). The experiment was conducted based on the manufacturer's recommendations. colchicine was used as a depolymerizing control while paclitaxel was used as a polymerizing control. Briefly, stock solutions of 10 μM of the compounds and controls were prepared in general tubulin buffer. Then, 10 μl of each solution was added in duplicates in half area 96-well plate prewarmed at 37° C. It was subsequently incubated at 37° C. for 2 minutes. Tubulin solution was prepared and 100 μl of it was added to each of the prewarmed wells of the compounds. The plate was immediately placed at a plate reader set up at kinetic modes and 37° C. temperature. Recording was conducted every minute for 60 minutes at 340 nm Absorbance.
# [1] = test system: BAX/bcl2 expression in MCF-7 cell line; assay: Western blot of BAX/bcl-2 expression; assay type: cell-based; conditions: 48 h, 5 and 10 μM; vs DMSO and colchicine
# Protocol: (§1) Proteins were quantified with the Pierce BCA Protein Assay Kit (Thermo Scientific, USA) following cell lysis. SDS-PAGE was prepared at a concentration of 10% for all studied proteins. All samples were loaded at 40 μg per 1.5 mm 15 wells comb. Running of stained samples was performed using two steps gel electrophoresis (60 Volts for 20 minutes followed by 120 Volts for 1 hour). Afterwards, gels were transferred into PVDF membrane at 100 Voltage for 1.5-2.0 hours using wet transfer. Following transfer, PVDF membranes were blocked with 5% skimmed milk and washed three times. Primary antibodies (Table 2.2) were prepared, then PVDF membrane were incubated with them overnight with gentle shaking at 4° C. Afterwards, membranes were washed three times and incubated with their respective secondary antibodies for 1-2 hours with gentle shaking at room temperature. Pierce™ ECL Western Blotting Substrate was used to detect proteins by chemiluminescence. Blots were imaged using the ibrightCL1000 imaging system.
# [2] = test system: BAX/bcl2 expression in MDA-MB-231 cell line; assay: Western blot of BAX/bcl-2 expression; assay type: cell-based; conditions: 48 h, 5 and 10 μM; vs DMSO and colchicine
# Protocol: as §1
# BT-474 = assay: MTT cell viability; assay type: cell-based
# Excerpt: Breast cancer cell lines including MDA-MB-231, MDA-MB-468, MCF-7, BT-474 and SK-BR-3 were obtained from the American Type Tissue Culture (ATCC) and maintained in complete cell culture media Gibco® RPMI 1640 (Thermo Fisher Scientific, USA) supplemented with 10% fetal bovine serum (PAN-Biotech, Aidenbach, Bavaria, Germany) and 1% penicillin/streptomycin (1×) antibiotics (Thermo Fisher Scientific, USA). Human normal mammary epithelial cells immortalized by E6/E7 of HPV type 16 (HNME-E6/E7) were used to predict potential safety of the compounds (125, 126). They were maintained in Gibco® Keratinocyte-SFM (1×) media. All cells were incubated in 5% CO2 at 37° C. incubator. Cells were maintained by routine sub-culturing in T-75 and T25 filtered tissue culture flasks.
# MDA-MB-231, MDA-MB-468, MCF-7, BT-474 and HNME-E6/E7 cells were seeded overnight in 96-well plates at a concentration of 8000-10,000/well depending on their pre-calculated cell density and were incubated overnight. At 24 hours, media was replaced with fresh one. The treatment wells included 6-8 different concentrations of the compounds ranging between 0.25 μM-160 μM. At 48 hours post treatment, 10 μL MTT solution was added to each well followed by 4 hours of incubation. Afterwards, media with MTT was removed from all wells and 50 μl DMSO was added to each well to dissolve the crystals. This was followed by 5 minutes incubation. Absorbance was recorded at a wavelength of 562 nm after 3 minutes of shaking using Infinite 200 PRO Microplate Reader (Tecan, Switzerland). Percentage of viable cells was calculated using the following formula: […]
# MCF-7 = assay: Radius cell migration assay; assay type: cell-based; conditions: Homo sapiens, MCF7; 24 hours of treatment; 5 concentrations; three independent experiments; read-out: Migratory IC50 MCF-7
# Protocol: (§2) For MCF-7 and SK-BR-3 cell lines, migration testing was performed using the Radius™ Cell Migration Assay Kit (Cell Biolabs, Inc., USA) and migration was quantified based on the change in wound area.
# SK-BR-3 = assay: Radius cell migration assay; assay type: cell-based; conditions: Homo sapiens, 24 hours of treatment, 5 concentrations, three independent experiments, read-out: Migratory IC50 SK-BR-3
# Protocol: as §2
compound,measurement,setting,value
"COc1cccc(C(=O)/C=C/c2ccc(N(CCCl)CCCl)cc2)c1 [Compound 14, (E)-3-(4-(Bis(2-chloroethyl)amino)phenyl)-1-(3-methoxyphenyl) prop-2-en-1-one]",effect on tubulin polymerization (in words),tubulin,"inhibited with an effect comparable to colchicine; also recorded: comparable to tubulin desterilizing agent, colchicine"
same,"BAX / bcl-2 protein expression, BAX/bcl-2 ratio",[1],upregulation of BAX and downregulation of bcl-2; also recorded: positive increase in BAX/bcl-2 ratio
same,"BAX / bcl-2 protein expression, BAX/bcl-2 ratio",[2],upregulation of BAX and downregulation of bcl-2; also recorded: positive increase in BAX/bcl-2 ratio
same,IC50,"BT-474; Homo sapiens, BT-474, 48 hours of treatment, Mean ± SEM (n = 3 × 3)",9.22 ± 0.78 µM
same,SI of HNME/BT-474 (selective index),BT-474; ratio of LD50 on HNME-E6/E7 to IC50 on BT-474,2.24
same,IC50,MCF-7,2.44 ± 0.39 µM
same,IC50,SK-BR-3,2.79 ± 0.45 µM
